In ChEMBL document CHEMBL3885861, “Open TG-GATES”:

Species on record: Rattus norvegicus
Experiment: Open TG-GATES - Regimen: Daily Repeat
Format: toxicity, organism-based, Sprague-Dawley
Set-up: regimen Daily Repeat, gender Male, age 6 weeks
Settings: in vivo, po, 100 mg/kg, route gavage, dose level High; for APTT / Bas / Eos / Fbg / Hb / Ht / Lym / MCH / MCHC / MCV / Mono / Neu / PT / Plat / RBC / Ret / WBC: tissue Blood; for KIDNEY_L / KIDNEY_R / KIDNEY_TOTAL: tissue Kidney; for LIVER: tissue Liver; for ALP / ALT / AST / BUN / CRE / Ca / DBIL / GLC / IP / K / LDH / Na / PL / RALB / TBIL / TC / TG / TP / gamma-GTP: tissue Plasma

Compound: CSc1ccc2c(c1)N(CCC1CCCCN1C)c1ccccc1S2 (centres undefined) [THIORIDAZINE]
- TERMINAL_BW (72 h, time 3 day): 219.1 g
- APTT (72 h, time 3 day): 15.9 s
- Bas (72 h, time 3 day): 0%
- Eos (72 h, time 3 day): 1%
- Fbg (72 h, time 3 day): 196.2 mg/dL
- Hb (72 h, time 3 day): 13.9 g/dL
- Ht (72 h, time 3 day): 41.9%
- Lym (72 h, time 3 day): 81.4%
- MCH (72 h, time 3 day): 21.4 pg
- MCHC (72 h, time 3 day): 33.2%
- MCV (72 h, time 3 day): 64.4 fL
- Mono (72 h, time 3 day): 5.4%
- Neu (72 h, time 3 day): 12.2%
- PT (72 h, time 3 day): 11.9 s
- Plat (72 h, time 3 day): 117.8 x10_4/uL
- RBC (72 h, time 3 day): 651.2 x10_4/ul
- Ret (72 h, time 3 day): 6.1%
- WBC (72 h, time 3 day): 136.4 x10_2/uL
- KIDNEY_L (72 h, time 3 day): 1 g
- KIDNEY_R (72 h, time 3 day): 1 g
- KIDNEY_TOTAL (72 h, time 3 day): 2 g
- LIVER (72 h, time 3 day): 12.2 g
- ALP (72 h, time 3 day): 887.2 IU/L
- ALT (72 h, time 3 day): 40 IU/L
- AST (72 h, time 3 day): 63.2 IU/L
- BUN (72 h, time 3 day): 19.4 mg/dL
- CRE (72 h, time 3 day): 0.5 mg/dL
- Ca (72 h, time 3 day): 10.9 mg/dL
- DBIL (72 h, time 3 day): 0.062 mg/dL
- GLC (72 h, time 3 day): 187.6 mg/dL
- IP (72 h, time 3 day): 9.4 mg/dL
- K (72 h, time 3 day): 4.5 meq/L
- LDH (72 h, time 3 day): 158.8 IU/L
- Na (72 h, time 3 day): 139.8 meq/L
- PL (72 h, time 3 day): 164 mg/dL
- RALB (72 h, time 3 day): 4 g/dL
- TBIL (72 h, time 3 day): 0.2 mg/dL
- TC (72 h, time 3 day): 84 mg/dL
- TG (72 h, time 3 day): 92.4 mg/dL
- TP (72 h, time 3 day): 5.9 g/dL
- gamma-GTP (72 h, time 3 day): 1.6 IU/L
- TERMINAL_BW ([…], time 7 day): 252.6 g
- TERMINAL_BW ([…], time 14 day): 299.8 g
- TERMINAL_BW ([…], time 28 day): 349.4 g
- APTT ([…], time 7 day): 16.5 s
- Bas ([…], time 7 day): 0%
- Eos ([…], time 7 day): 0.2%
- Fbg ([…], time 7 day): 213 mg/dL
- Hb ([…], time 7 day): 14.3 g/dL
- Ht ([…], time 7 day): 43.2%
- Lym ([…], time 7 day): 80%
- MCH ([…], time 7 day): 21.3 pg
- MCHC ([…], time 7 day): 33.1%
- MCV ([…], time 7 day): 64.2 fL
- Mono ([…], time 7 day): 7.6%
- Neu ([…], time 7 day): 12%
- PT ([…], time 7 day): 12.3 s
- Plat ([…], time 7 day): 98.4 x10_4/uL
- RBC ([…], time 7 day): 672 x10_4/ul
- Ret ([…], time 7 day): 4.6%
- WBC ([…], time 7 day): 144.8 x10_2/uL
- APTT ([…], time 14 day): 17.8 s
- Bas ([…], time 14 day): 0%
- Eos ([…], time 14 day): 0.8%
- Fbg ([…], time 14 day): 242.8 mg/dL
- Hb ([…], time 14 day): 15.2 g/dL
- Ht ([…], time 14 day): 45.7%
- Lym ([…], time 14 day): 75%
- MCH ([…], time 14 day): 20.8 pg
- MCHC ([…], time 14 day): 33.3%
- MCV ([…], time 14 day): 62.5 fL
- Mono ([…], time 14 day): 6%
- Neu ([…], time 14 day): 18.2%
- PT ([…], time 14 day): 11.9 s
- Plat ([…], time 14 day): 112.1 x10_4/uL
- RBC ([…], time 14 day): 733.4 x10_4/ul
- Ret ([…], time 14 day): 4.4%
- WBC ([…], time 14 day): 145.8 x10_2/uL
- APTT ([…], time 28 day): 17.7 s
- Bas ([…], time 28 day): 0%
- Eos ([…], time 28 day): 0.6%
- Fbg ([…], time 28 day): 225.4 mg/dL
- Hb ([…], time 28 day): 15.6 g/dL
- Ht ([…], time 28 day): 46.6%
- Lym ([…], time 28 day): 80.4%
- MCH ([…], time 28 day): 19.3 pg
- MCHC ([…], time 28 day): 33.4%
- MCV ([…], time 28 day): 57.7 fL
- Mono ([…], time 28 day): 5.6%
- Neu ([…], time 28 day): 13.8%
- PT ([…], time 28 day): 12.5 s
- Plat ([…], time 28 day): 92.7 x10_4/uL
- RBC ([…], time 28 day): 808.8 x10_4/ul
- Ret ([…], time 28 day): 2.5%
- WBC ([…], time 28 day): 142.8 x10_2/uL
- KIDNEY_L ([…], time 7 day): 1.2 g
- KIDNEY_R ([…], time 7 day): 1.2 g
- KIDNEY_TOTAL ([…], time 7 day): 2.3 g
- KIDNEY_L ([…], time 14 day): 1.3 g
- KIDNEY_R ([…], time 14 day): 1.3 g
- KIDNEY_TOTAL ([…], time 14 day): 2.6 g
- KIDNEY_L ([…], time 28 day): 1.4 g
- KIDNEY_R ([…], time 28 day): 1.4 g
- KIDNEY_TOTAL ([…], time 28 day): 2.8 g
- LIVER ([…], time 7 day): 12.3 g
- LIVER ([…], time 14 day): 13.6 g
- LIVER ([…], time 28 day): 15.1 g
- ALP ([…], time 7 day): 928.2 IU/L
- ALT ([…], time 7 day): 34.2 IU/L
- AST ([…], time 7 day): 64 IU/L
- BUN ([…], time 7 day): 16 mg/dL
- CRE ([…], time 7 day): 0.5 mg/dL
- Ca ([…], time 7 day): 11.2 mg/dL
- DBIL ([…], time 7 day): 0.008 mg/dL
- GLC ([…], time 7 day): 199.8 mg/dL
- IP ([…], time 7 day): 9.7 mg/dL
- K ([…], time 7 day): 4.6 meq/L
- LDH ([…], time 7 day): 100.2 IU/L
- Na ([…], time 7 day): 141.6 meq/L
- PL ([…], time 7 day): 166.8 mg/dL
- RALB ([…], time 7 day): 3.8 g/dL
- TBIL ([…], time 7 day): 0.4 mg/dL
- TC ([…], time 7 day): 79 mg/dL
- TG ([…], time 7 day): 132.4 mg/dL
- TP ([…], time 7 day): 5.7 g/dL
- gamma-GTP ([…], time 7 day): 1.4 IU/L
- ALP ([…], time 14 day): 741.8 IU/L
- ALT ([…], time 14 day): 30.4 IU/L
- AST ([…], time 14 day): 61.2 IU/L
- BUN ([…], time 14 day): 16.4 mg/dL
- CRE ([…], time 14 day): 0.6 mg/dL
- Ca ([…], time 14 day): 10.9 mg/dL
- DBIL ([…], time 14 day): 0.02 mg/dL
- GLC ([…], time 14 day): 178.2 mg/dL
- IP ([…], time 14 day): 9.2 mg/dL
- K ([…], time 14 day): 5.2 meq/L
- LDH ([…], time 14 day): 189 IU/L
- Na ([…], time 14 day): 142.8 meq/L
- PL ([…], time 14 day): 152.2 mg/dL
- RALB ([…], time 14 day): 4 g/dL
- TBIL ([…], time 14 day): 0.4 mg/dL
- TC ([…], time 14 day): 80.2 mg/dL
- TG ([…], time 14 day): 83.4 mg/dL
- TP ([…], time 14 day): 6.1 g/dL
- gamma-GTP ([…], time 14 day): 1.4 IU/L
- ALP ([…], time 28 day): 742.4 IU/L
- ALT ([…], time 28 day): 35.4 IU/L
- AST ([…], time 28 day): 55.8 IU/L
- BUN ([…], time 28 day): 18.6 mg/dL
- CRE ([…], time 28 day): 0.6 mg/dL
- Ca ([…], time 28 day): 10.7 mg/dL
- DBIL ([…], time 28 day): 0.006 mg/dL
- GLC ([…], time 28 day): 176.4 mg/dL
- IP ([…], time 28 day): 7.7 mg/dL
- K ([…], time 28 day): 4.9 meq/L
- LDH ([…], time 28 day): 115.4 IU/L
- Na ([…], time 28 day): 142.6 meq/L
- PL ([…], time 28 day): 160 mg/dL
- RALB ([…], time 28 day): 4.1 g/dL
- TBIL ([…], time 28 day): 0.2 mg/dL
- TC ([…], time 28 day): 80.2 mg/dL
- TG ([…], time 28 day): 111.4 mg/dL
- TP ([…], time 28 day): 6.4 g/dL
- gamma-GTP ([…], time 28 day): 1.6 IU/L
